# From US6022307A, “Substituted dibenzothiophenes having antiangiogenic activity” (American Cyanamid Company, priority 1999, dated 2000)
# Counter-ions that a name gives are not always drawn. Like-named read-outs stand apart in the source and are kept apart here.
# What was measured:
# KDR [1] = system: KDR
# Experimental: (§1) Inhibition of Binding of VEGF 165 to KDR & Flt-1 Receptors as Measured by SPA Assay
# (§2) Preparation of conditioned media containing the KDR-Fc soluble VEGF receptor.:
# (§3) Human 293KDR2 cells, which secrete a soluble KDR-Fc fusion protein, were grown in Dulbecco's Modified Eagle Medium supplemented with 10% fetal calf serum, 2 mM glutamine, 10 units/ml penicillin G sulfate, 10 μg/ml streptomycin sulfate and 175 μg/ml geneticin (G418) sulfate. Cells were plated at a density of 10^6 cells/100 mm dish and incubated at 37° C. in a humidified atmosphere containing 95% air and 5% CO2. After 10 days, conditioned medium was collected and centrifuged at 15,000 rpm for 15 min to remove dead cells. A total of 0.1 volume of 1.15% gelatin and 0.02 volume of 1M HEPES buffer (pH 8) was added. Leupeptin and pepstatin A were added to 1 μg/ml each.
# (§4) Preparation of ^125 I-labelled VEGF ligand:
# (§5) Recombinant human ^125 T-labelled VEGF 165 was purchased from Amersham (3,800 cpm/fmol). ^125,-labelled VEGF was diluted in DMEM supplemented with gelatin (0.15%) and HEPES buffer (20 mM) to a final concentration of 40,000 cpm/25 μl.
# Preparation of SPA beads:
# (§6) SPA PVT antibody-binding beads were purchased from Amersham. Each bottle of SPA beads (500 mg) was reconstituted in 25 ml of DMEM supplemented with gelatin (0.15%) and HEPES buffer (20 mM). The bottle contents were well mixed (15 min with a stir bar at room temperature).
# (§7) SPA assays were performed in flat-bottom polystyrene 96 well microtitre plates.
# (a) Pipette 50 μl of SPA beads to well.
# (§8) (b) Pipette 25 μl of conditioned medium to well.
# (§9) (d) Pipette 25 μl of ^125 J-VEGF 165 to well.
# (§10) The appropriate control wells were set up to measure non-specific binding, solvent effect, etc. The assays were run in duplicate or triplicate wells. Plates were sealed and incubate at room temperature without shaking for 5 to 20 hours. Plates were then counted in a Packard TopCount microtitre plate liquid scintillation counter.
# (§11) A typical assay gave 3,000 to 6,000 cpm bound. Background binding (measured in the presence of 100-fold molar excess of unlabelled VEGF 165) was typically 200 to 300 cpm bound. Compounds were tested at 30, 10, 3, 1, 0.3 and 0.1 μg/ml in DMSO. […] Half maximal binding was determined by the following equation:
# (§12) s=maximal cpm bound in the absence of compound.
# (§13) The IC50 values were determined graphically by the following procedure:
# (§14) A graph was drawn plotting compound concentration (x-axis) versus cpm bound (y-axis).
# (§15) The half maximal binding was calculated using the equation above.
# (§16) A horizontal line (LINE A) was drawn which intersects the y-axis at the half maximal binding value.
# (§17) A vertical line (LINE B) was drawn through the point where LINE A intersects the inhibition curve.
# (§18) The point where LINE B intersects the x-axis was extrapolated from the graph to give the IC50 value.
# [2] = system: Human Epidermoid Tumors (A431); type: in vivo, human tumor in BALB/c nu/nu female mice; details: 100 mg/kg, PO
# [3] = system: corneal neovascularization; assay: Corneal Neovascularization Model; type: in vivo, mice; details: 100 mg/kg, PO, days 1-10
# Experimental: Corneal Neovascularization Model
# The sustained release preparations of angiogenic agents (ELVAX pellet) were prepared by solvent casting. […] The solvent was then evaporated, leaving the angiogenic agent in the polymeric matrix
# Mice were anesthetized using a 1-1.5 ml/kg solution containing a mixture of 70% ketamine hydrochloride (100 mg/ml) and 30% xylazine (20 mg/ml). Using sterile surgical technique, an ELVAX pellet containing either basic FGF (100 ng) or VEGF (400 ng) was implanted into a previously dissected intrastromal corneal pocket 0.5 mm from the corneoscleral limbus. Following implantation the implantation site margins were reapposed and the eyes were treated with topical antibiotic ointment (bacitracin/neomycin/polymixin). On various days (between postoperative days 4 and 18) the extent of neovascularization was measured.
# Neovascularization was monitored by measurements of new vessel growth within the previously avascular cornea. This parameter was obtained by measuring with calipers under microscopic magnification the length of the base of the neovascular bed at the limbus. The area of neovascularization,which is typically triangular, was calculated by dividing the product of the length of the vessel and the base length by two. Data was statistically analyzed via Student-t-test of Log Relative Reduction of Neovascularization. A p-value (p≤0.05) indicates a statistically significant reduction in neovascularization of Treated Group, compared to Placebo Control.
# [4] = system: Human Epidermoid Tumors (A431); type: in vivo, human tumor in BALB/c nu/nu female mice
# Experimental: In Vivo Inhibition of Growth of Human Epidermoid Tumors (A431)
# In vivo testing was performed using BALB/c nu/nu female mice (Charles River, Wilmington, Mass.). The human epidermoid carcinoma cells A-431 (American Type Culture Collection, Rockville, Md. # CRL-155) were grown in vitro and 5×10^6 cells were injected subcutaneously (SC) into mice. When tumors attained a mass of between 100 and 150 mg, the mice were randomized into treatment groups (Day Zero). Mice were treated either intraperitoneally (IP) or orally (PO) once a day on days 1 through 20 post staging with doses of either 100 or 50 mg/kg/dose in 0.2% Klucel. Tumor mass was determined every 7 days [(length×width^2)/2] for up to 42 days post staging. Relative tumor growth (mean tumor mass on day 7, 14, 21, 28, 35 and 42 divided by the mean tumor mass on day zero) was determined for each treatment group. The %T/C (Tumor/Control) was determined by dividing the relative tumor growth of the treated group by the relative tumor growth of the placebo group and multiplying by 100. Data was statistically analyzed via Student-t-test of Log Relative Tumor Growth. A p-value (p≤0.05) indicates a statistically significant reduction in Relative Tumor Growth of Treated Group, compared to Placebo Control. A compound is considered to be active if the %T/C is found to be <60% and a p-value of less than or equal to 0.05 is achieved.
# [5] = system: VEGF 165-induced vascular permeability; assay: Inhibition of Vascular Permeability Assay (Miles Assay); type: in vivo, BALB/c female mice; details: 100 mg/kg, PO
# Experimental: Inhibition of Vascular Permeability Assay (Miles Assay) This assay was performed using BALB/c female mice (Charles River, Wilmington, Mass.). Both sides of the animals were shaved between 24 and 48 hours before the start of the assay. There were 10 animals per experimental group. […] One half hour later the animals were sacrificed by CO2 inhalation. […] Data was statistically analyzed via Student-t-test. A p-value (p≤0.05) indicates a statistically significant difference between the area of vascular permeability of the vehicle control verses the experimental group. Data was statistically analyzed via Student-t-test of Log Relative Area of Permiability. A p-value (p≤0.05) indicates a statistically significant reduction in permeability of Treated Group, compared to Placebo Control.
# KDR [6] = assay: Inhibition of Binding of VEGF 165 to KDR Receptor as Measured by SPA Assay; details: read-out: affinity constant for VEGF binding to the soluble KDR-Fc receptor
# Target sequence in this assay (P35968 20-327 limits assumed): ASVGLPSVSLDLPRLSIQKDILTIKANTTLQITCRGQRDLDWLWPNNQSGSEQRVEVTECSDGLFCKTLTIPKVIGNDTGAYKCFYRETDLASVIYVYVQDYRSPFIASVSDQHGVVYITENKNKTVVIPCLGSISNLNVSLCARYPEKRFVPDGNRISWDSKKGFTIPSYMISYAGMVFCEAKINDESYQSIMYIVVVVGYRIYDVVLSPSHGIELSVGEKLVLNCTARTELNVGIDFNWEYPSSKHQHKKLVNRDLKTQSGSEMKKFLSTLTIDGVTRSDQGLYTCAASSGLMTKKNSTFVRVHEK
# Experimental: as §1, §2, §3, §4, §5
# Preparation of SPA beads:
# as §6, §7
# (a) Pipette 50 μl of SPA beads to well.
# as §8, §9, §10, §11, §12, §13, §14, §15, §16, §17, §18
Compound,IC50 (KDR [1]),"% T/C (Day) ([4]; 50 mg/kg, PO, day 28)",% Control ([5]; 4 hr prior to VEGF),Lesion Area (measured area of vascular permeability) ([5]; 4 hr prior to VEGF),further results
"CCOP(=O)(O)c1cc2c(cc1NC(=O)/C=C/c1ccc(OC)cc1)S(=O)(=O)c1cc(NC(=O)/C=C/c3ccc(OC)cc3)c(P(=O)(O)OCC)cc1-2 [Example 20, [3,7-Bis-[4-methoxyphenyl]-acryloylamino]-8-(ethoxyhydroxy-phosphoryl)-5,5-dioxo-5H-5^6-dibenzothiophen-2-yl]-phosphonic acid monoethyl ester, disodium salt]",3.9 µg/mL,–,–,–,"Inhibition of Corneal Neovascularization ([3]; Day 4): 29%; Inhibition of Corneal Neovascularization ([3]; Day 8): 25%; Inhibition of Corneal Neovascularization ([3]; Day 11): 30%; Inhibition of Corneal Neovascularization ([3]; Day 13): 26%; S/T (No. Survivors/No. Treated) ([4]; 100 mg/kg, PO, Day +28 post tumor staging): 5/5; % T/C (Day) ([2]; day 29): 39%"
"COc1ccc(/C=C/C(=O)Nc2cc3c(cc2S(=O)(=O)O)-c2cc(S(=O)(=O)O)c(NC(=O)/C=C/c4ccc(OC)c(OC)c4Cl)cc2S3(=O)=O)c(Cl)c1OC [Example 27, 3,7-Bis[3-(2-chloro-3,4-di-methoxyphenyl)-acryloylamino]-5,5-dioxo-5H-5^6-dibenzothiophene-2,8-disulfonic acid, disodium salt]",2.33 µg/mL,51%,73%,58.5 mm^2,"% T/C (Day) ([4]; 100 mg/kg, PO, day 28): 30%"
"O=C(Nc1cc2c(cc1S(=O)(=O)O)-c1cc(S(=O)(=O)O)c(NC(=O)c3ccc4c(c3)C(=O)c3ccccc3C4=O)cc1S2(=O)=O)c1ccc2c(c1)C(=O)c1ccccc1C2=O [Example 55, 3,7-Bis-[9,10-dihydro-9,10-dioxoanthracen-2-yl)carbonyl-amino]-5,5-dioxo-5H-5^6-dibenzothiophene-2,8-disulfonic acid, disodium salt]",1 µg/mL,44%,74%,70.5 mm^2,% Control ([5]; 1 hr prior to VEGF): 77%; Lesion Area (measured area of vascular permeability) ([5]; 1 hr prior to VEGF): 71.6 mm^2
VEGF,–,–,–,–,Kd (KDR [6]): ~0.1 nM

# Further lines, with some results ahead:
IC50 (KDR [1]),Compound,"% T/C (Day) ([4]; 50 mg/kg, PO, day 28)",% Control ([5]; 4 hr prior to VEGF),Lesion Area (measured area of vascular permeability) ([5]; 4 hr prior to VEGF),further results
0.5 µg/mL,"O=C(Nc1cc2sc3cc(NC(=O)c4cc5c(s4)-c4cc(Cl)ccc4SC5)c(C(=O)O)cc3c2cc1C(=O)O)c1cc2c(s1)-c1cc(Cl)ccc1SC2 [Example 6, 3,7-Bis[(8-chloro-4H-thieno[3,2-c][1]benzothiopyran-2-carbonyl)-amino]dibenzothio-phene-2,8-dicarboxylic acid, disodium]",–,–,–,% T/C (Day) ([2]; day 15): 52%
0.5 µg/mL,"COc1ccc(/C=C/C(=O)Nc2cc3c(cc2S(=O)(=O)O)-c2cc(S(=O)(=O)O)c(NC(=O)/C=C/c4ccc(OC)cc4)cc2S3(=O)=O)cc1 [Example 30, 3,7-Bis-[3-(4-methoxyphenyl)-acryloylamino]-5,5-dioxo-5H-5^6-dibenzothiophene-2,8-disulfonic acid, disodium salt]",58%,56%,52.9 mm^2,"% T/C (Day) ([4]; 100 mg/kg, PO, day 42): 56%"
0.15 µg/mL,"O=C(Nc1cc2c(cc1S(=O)(=O)O)-c1cc(S(=O)(=O)O)c(NC(=O)c3ccc4cc5ccccc5cc4c3)cc1S2(=O)=O)c1ccc2cc3ccccc3cc2c1 [Example 54, 3,7-Bis-(anthracen-2-ylcarbonylamino)-5,5-dioxo-5H-5^6-dibenzothiophene-2,8-disulfonic acid, disodium salt]",38%,–,–,"% T/C (Day) ([4]; 50 mg/kg, IP, day 28): 46%"
